Laboratory results as given in patent US20240358668A1, “METHODS AND CO[…] AM[…] CARD[…] USING (R)-2-AMINO-3-PH[…]” (AXSOME THERAPEUTICS, INC., priority 2021, published 2024).
Marks after values point to notes of the source that are not given here.

Test system: adults with EDS associated with OSA
Assay: Long-term OLE trial in OSA: vital signs, antihypertensive medication use, AEs of hypertension/increased BP
Format: in vivo, human
Procedure: An exploratory analysis of data from one 12-week randomized, controlled trial (Schweitzer P K, et al. Am J Respir Crit Care Med. 2019; 199(11):1421-31) and 1 long-term open-label extension (OLE) trial in adults with EDS (Epworth Sleepiness Scale score ≥10) associated with OSA (Malhotra A, et al. Sleep. 2020; 43(2):zsz220) was carried out. Participants with current/prior use of primary OSA therapy (positive airway pressure [PAP], oral pressure therapy, oral appliance, or upper airway stimulation) were eligible, regardless of the level of adherence to primary OSA therapy; participants who had not attempted to use primary OSA therapy were excluded. Adherence to primary OSA therapy was defined as PAP use ≥4 hours/night on ≥70% of nights/week, historical report (with investigator concurrence) of oral appliance use on ≥70% of nights, or effective surgical intervention. Nonadherence to primary OSA therapy was defined as device use at a level lower than specific above, no device use at all, or surgical intervention deemed no longer effective. Participants received placebo or solriamfetol 37.5 (12-week trial only), 75, 150, or 300 mg/day for 12 weeks (12-week trial) or ≤40 weeks (OLE trial). Vital signs, antihypertensive medication use, and adverse events (AEs) were monitored throughout the studies. Baseline demographics, CV comorbidities, and concomitant medications, the percentage of participants who initiated antihypertensive medication use during treatment, and the incidence of and discontinuations due to AEs of hypertension/increased BP were summarized for the safety population (participants who received ≥1 dose of study medication).

**Q.** Which “change in DBP from baseline to week 40” value (OLE) does the source give for NC(=O)OC[C@H](N)Cc1ccccc1 [Solriamfetol, (R)-2-amino-3-phenylpropyl carbamate] here?
**A.** Its value is 0.29 mm Hg.

**Q.** What about the “change in HR from baseline to week 40” value (OLE) of the same compound?
**A.** The value was −1.94 bpm.

**Q.** What about the “change in SBP from baseline to week 40” value (OLE) of the same compound?
**A.** The value was −0.49 mm Hg.

**Q.** And the “total participants with AEs of hypertension/increased BP” value (OLE)?
**A.** Its value is 22 participants.

**Q.** And the “serious AE of cerebrovascular accident” value (OLE trial)?
**A.** Its value is 1.

**Q.** What about the “Discontinuation due to AE of HTN/increased BP” value (OLE, 75 mg) of the same compound?
**A.** The value was 1 (0.2)^d n (%).

**Q.** And the “Initiated anti-HTN” value (OLE, 75 mg)?
**A.** The value was 3 (6.1) n (%).

**Q.** And the “AE of HTN/increased BP” value (OLE, 75 mg, % of participants that ever received the dose level (n = 417))?
**A.** Its value is 4 (1.0) n (%).

**Q.** What about the “Discontinuation due to AE of HTN/increased BP, (%)” value (OLE, 150 mg) of the same compound?
**A.** Its value is “(0.2)^d %”.

**Q.** And the “Initiated anti-HTN” value (OLE, 150 mg)?
**A.** Its value is 2 (1.4) n (%).

**Q.** What about the “AE of HTN/increased BP, (%)” value (OLE, 150 mg, % of participants that ever received the dose level (n = 402)) of the same compound?
**A.** The value was “(1.5) %”.

**Q.** And the “Discontinuation due to AE of HTN/increased BP, (%)” value (OLE, 300 mg)?
**A.** Its value is “(0.3)^e %”.

**Q.** What about the “Initiated anti-HTN” value (OLE, 300 mg) of the same compound?
**A.** The value was 3 (1.3) n (%).

**Q.** What about the “AE of HTN/increased BP, (%)” value (OLE, 300 mg, % of participants that ever received the dose level (n = 326)) of the same compound?
**A.** The value was “(3.7) %”.
